Data published in patent US9615579B2, “Compositions for powdery mildew control and methods of their use” (Valent U.S.A., Corporation, priority 2015, dated 2017).

Legend:
apple powdery mildew [1] = experiment: Example 1: foliar applications on jonagold apple trees, control of apple powdery mildew; type: in vivo, Podosphaera leucotricha; details: jonagold trees about 9 years old; five foliar sprays at 14 day intervals, about 300 L/ha; incidence of disease observed about a week after last treatment; rates (own compound 50 g active/ha, silicone surfactant 584 mL/ha, Regulaid surfactant 0.125% v/v, methylated seed oil 0.06% v/v, kresoxim-methyl 224, penthiopyrad 234 g active/ha)
Source text: Applicant conducted the following study to determine the effect of 3-(difluoromethyl)-1-methyl-N-[(3R)-1,1,3-trimethyl-2,3-dihydroinden-4-yl]pyrazole-4-carboxamide foliar applications on fungal infections in apple trees.
A 40% suspension concentrate formulation was used as the source of 3-(difluoromethyl)-1-methyl-N-[(3R)-1,1,3-trimethyl-2,3-dihydroinden-4-yl]pyrazole-4-carboxamide (available from Sumitomo Chemical Company, Tokyo, Japan).
Regulaid® is a nonionic surfactant and was used as the source of the 2-butoxyethanol, poloxalene, and monopropylene glycol surfactant (Regulaid is available from and a registered trademark of KALO, Inc). Regulaid® contains about 90.6% of 2-butoxyethanol, poloxalene, and monopropylene glycol.
Sovran® was used as the source of kresoxim-methyl (available from and a registered trademark of BASF Corporation).
Fontelis® was used as the source of penthiopyrad (available from and a registered trademark of E.I. du Pont).
Slygard® 309 was used as the source of a mixture of 3-(3-hydroxypropyl)-heptamethyltrisiloxane-ethoxylated acetate, polyethylene glycol monallyl acetate and polyethylene glycol diacetate silicone containing surfactant (available from and a registered trademark of Wilbur-Ellis Company). Slygard® 309 contains 100% of the mixture of surfactants.

Apples, jonagold variety = experiment: Example 2: fruit finish quality of treated apple trees; type: in vivo; details: 80 days after 7th treatment
Method: (§1) 30, 2015. […] Pest incidence, pest severity, and fruit finish were measured.

apple powdery mildew [2] = experiment: Example 2: foliar applications on jonagold apple trees, incidence and severity of apple powdery mildew; type: in vivo, Podosphaera leucotricha
Method: Applicant conducted the following study to determine the effect of a 3-(difluoromethyl)-1-methyl-N-[(3R)-1,1,3-trimethyl-2,3-dihydroinden-4-yl]pyrazole-4-carboxamide foliar applications on fungal infections in apple trees.
as §1
SYL-COAT™ was used as the source of polyether-polymethylsiloxane-copolymer and polyether silicone containing surfactant (available from Wilbur-Ellis Company).

[3] = 8 days after 4th treatment, rates (own compound 50 g/ha, penthiopyrad 234 g/ha, kresoxim-methyl 224 g/ha, silicone surfactant 8 fl oz/a, Regulaid surfactant 0.125% v/v)

Row | Structure (SMILES) | % Control (apple powdery mildew [1]) [%] | Fruit Finish Quality (0 lowest-10 highest) (Apples, jonagold variety) [b] | Incidence of Apple Powdery Mildew (%) (apple powdery mildew [2]; 2 days after 5th treatment) | Severity of Apple Powdery Mildew (%) (apple powdery mildew [2]; 2 days after 5th treatment) | Incidence of Apple Powdery Mildew (%) (apple powdery mildew [2]; 3 days after 6th treatment) | Severity of Apple Powdery Mildew (%) (apple powdery mildew [2]; 3 days after 6th treatment) | Incidence of Apple Powdery Mildew (%) (apple powdery mildew [2]; [3]) | Severity of Apple Powdery Mildew (%) (apple powdery mildew [2]; 9 days after 7th treatment)
1 | C[C@@H]1CC(C)(C)c2cccc(NC(=O)c3cn(C)nc3C(F)F)c21 [3-(Difluoromethyl)-1-methyl-N-[(3R)-1,1,3-trimethyl-2,3-dihydroinden-4-yl]pyrazole-4-carboxamide] | 67 | 7.5000 | 11.5303 bc % | 1.6836 bc % | 20.4938 c % | 4.4196 c % | 13.0000 b % | 11.5331 bc %
2 | CO/N=C(/C(=O)OC)c1ccccc1COc1ccccc1C [Kresoxim-methyl, kresoxim-methyl] | 63 | 8.2500 | 3.4874 cd % | 0.8465 cd % | 12.0332 cd % | 2.9013 c % | 8.7500 bc % | 9.0294 bc %
3 | CC(C)CC(C)c1sccc1NC(=O)c1cn(C)nc1C(F)(F)F (stereo not drawn) [Penthiopyrad, penthiopyrad] | 71 | 8.0000 | 1.4675 cd % | 0.6379 cd % | 2.5965 ef % | 0.7932 d % | 7.5000 bc % | 7.8439 c %
